According to PubChem BioAssay (NCI):
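1) Cells in 96-well plates. 2) Compound, 48 h, 5 concentrations. 3) Linear interpolation between surrounding doses. 4) Unreached endpoint = highest concentration. TGI marks complete inhibition of growth.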

What follows are molecules tested on U251 CNS (assay: growth of human tumour cells (NCI), 48 h).

First: CC(C)(C)OC(=O)C1=C(O)C(C(=O)OC(C)(C)C)C23CCCCC12C(C(=O)OC(C)(C)C)C(O)=C3C(=O)OC(C)(C)C (stereo not drawn)
Second: CC[C@H]1CC(=O)c2c(cc3c(c2O)C(=O)c2ccccc2C3=O)[C@@]1(C#N)C(=O)OC(C)(C)C
The TGI of the first is higher: over 100 µM for the first, 53.3 µM for the second.

`COc1cc(C(=O)Nc2cccc3ccccc23)c(Br)c(OC)c1OC` and `Cn1c(C2CCCc3c2c2ccccc2n3C)cc2ccccc21` (stereo not drawn) cannot be ordered by TGI: over 100 µM for the first, over 318 µM for the second.

These molecules were tested on CAKI-1 renal (assay: growth of human tumour cells (NCI), 48 h).

`COc1cc(/C=C2\CCC(C)(CN(C)C)C2=O)cc(OC)c1OC` (stereo not drawn) and `COc1cc(C(=O)Nc2cccc3ccccc23)c(Br)c(OC)c1OC` cannot be ordered by TGI: over 100 µM for the first, over 100 µM for the second.

`CC(C)(C)OC(=O)C1=C(O)C(C(=O)OC(C)(C)C)C23CCCCC12C(C(=O)OC(C)(C)C)C(O)=C3C(=O)OC(C)(C)C` (stereo not drawn) and `Cn1c(C2CCCc3c2c2ccccc2n3C)cc2ccccc21` (stereo not drawn) cannot be ordered by TGI: over 100 µM for the first, over 318 µM for the second.

Each molecule was assayed on LXFL 529 NSCLC (assay: growth of human tumour cells (NCI), 48 h).

`COc1cc(/C=C2\CCC(C)(CN(C)C)C2=O)cc(OC)c1OC` (stereo not drawn) and `COc1cc(C(=O)Nc2cccc3ccccc23)c(Br)c(OC)c1OC` cannot be ordered by TGI: over 100 µM for the first, over 100 µM for the second.

`CC(C)(C)OC(=O)C1=C(O)C(C(=O)OC(C)(C)C)C23CCCCC12C(C(=O)OC(C)(C)C)C(O)=C3C(=O)OC(C)(C)C` (stereo not drawn) and `CC[C@H]1CC(=O)c2c(cc3c(c2O)C(=O)c2ccccc2C3=O)[C@@]1(C#N)C(=O)OC(C)(C)C` cannot be ordered by TGI: over 100 µM for the first, over 100 µM for the second.

`Cn1c(C2CCCc3c2c2ccccc2n3C)cc2ccccc21` (stereo not drawn) was tested, and the TGI was over 318 µM.

The molecules below were run on NCI-H226 lung (assay: growth of human tumour cells (NCI), 48 h).

`COc1cc(/C=C2\CCC(C)(CN(C)C)C2=O)cc(OC)c1OC` (stereo not drawn) and `COc1cc(C(=O)Nc2cccc3ccccc23)c(Br)c(OC)c1OC` cannot be ordered by TGI: over 100 µM for the first, over 100 µM for the second.

Going from `CC(C)(C)OC(=O)C1=C(O)C(C(=O)OC(C)(C)C)C23CCCCC12C(C(=O)OC(C)(C)C)C(O)=C3C(=O)OC(C)(C)C` (stereo not drawn) to `CC[C@H]1CC(=O)c2c(cc3c(c2O)C(=O)c2ccccc2C3=O)[C@@]1(C#N)C(=O)OC(C)(C)C`, the TGI falls from over 100 µM to 8.82 µM.

`Cn1c(C2CCCc3c2c2ccccc2n3C)cc2ccccc21` (stereo not drawn) gave a TGI of over 318 µM.

Each molecule was assayed on CCRF-CEM leukemia (assay: growth of human tumour cells (NCI), 48 h).

`COc1cc(/C=C2\CCC(C)(CN(C)C)C2=O)cc(OC)c1OC` (stereo not drawn) and `COc1cc(C(=O)Nc2cccc3ccccc23)c(Br)c(OC)c1OC` cannot be ordered by TGI: over 100 µM for the first, over 100 µM for the second.

`CC(C)(C)OC(=O)C1=C(O)C(C(=O)OC(C)(C)C)C23CCCCC12C(C(=O)OC(C)(C)C)C(O)=C3C(=O)OC(C)(C)C` (stereo not drawn) and `Cn1c(C2CCCc3c2c2ccccc2n3C)cc2ccccc21` (stereo not drawn) cannot be ordered by TGI: over 100 µM for the first, over 318 µM for the second.

These molecules were tested on A498 renal (assay: growth of human tumour cells (NCI), 48 h).

`COc1cc(/C=C2\CCC(C)(CN(C)C)C2=O)cc(OC)c1OC` (stereo not drawn) and `CC(C)(C)OC(=O)C1=C(O)C(C(=O)OC(C)(C)C)C23CCCCC12C(C(=O)OC(C)(C)C)C(O)=C3C(=O)OC(C)(C)C` (stereo not drawn) cannot be ordered by TGI: over 100 µM for the first, over 100 µM for the second.

What follows are molecules tested on SR leukemia (assay: growth of human tumour cells (NCI), 48 h).

`COc1cc(/C=C2\CCC(C)(CN(C)C)C2=O)cc(OC)c1OC` (stereo not drawn) and `COc1cc(C(=O)Nc2cccc3ccccc23)c(Br)c(OC)c1OC` cannot be ordered by TGI: over 100 µM for the first, over 100 µM for the second.

`CC(C)(C)OC(=O)C1=C(O)C(C(=O)OC(C)(C)C)C23CCCCC12C(C(=O)OC(C)(C)C)C(O)=C3C(=O)OC(C)(C)C` (stereo not drawn) and `CC[C@H]1CC(=O)c2c(cc3c(c2O)C(=O)c2ccccc2C3=O)[C@@]1(C#N)C(=O)OC(C)(C)C` cannot be ordered by TGI: over 100 µM for the first, over 100 µM for the second.

`Cn1c(C2CCCc3c2c2ccccc2n3C)cc2ccccc21` (stereo not drawn) showed a TGI of over 318 µM.

What follows are molecules tested on M14 melanoma (assay: growth of human tumour cells (NCI), 48 h).

`COc1cc(/C=C2\CCC(C)(CN(C)C)C2=O)cc(OC)c1OC` (stereo not drawn) and `COc1cc(C(=O)Nc2cccc3ccccc23)c(Br)c(OC)c1OC` cannot be ordered by TGI: over 100 µM for the first, over 100 µM for the second.

Compared with `CC(C)(C)OC(=O)C1=C(O)C(C(=O)OC(C)(C)C)C23CCCCC12C(C(=O)OC(C)(C)C)C(O)=C3C(=O)OC(C)(C)C` (stereo not drawn), `CC[C@H]1CC(=O)c2c(cc3c(c2O)C(=O)c2ccccc2C3=O)[C@@]1(C#N)C(=O)OC(C)(C)C` is lower in TGI: over 100 µM for the first, 14.5 µM for the second.

These molecules were tested on HCT-116 colon (assay: growth of human tumour cells (NCI), 48 h).

`COc1cc(/C=C2\CCC(C)(CN(C)C)C2=O)cc(OC)c1OC` (stereo not drawn) and `COc1cc(C(=O)Nc2cccc3ccccc23)c(Br)c(OC)c1OC` cannot be ordered by TGI: over 100 µM for the first, over 100 µM for the second.

Compared with `CC(C)(C)OC(=O)C1=C(O)C(C(=O)OC(C)(C)C)C23CCCCC12C(C(=O)OC(C)(C)C)C(O)=C3C(=O)OC(C)(C)C` (stereo not drawn), `CC[C@H]1CC(=O)c2c(cc3c(c2O)C(=O)c2ccccc2C3=O)[C@@]1(C#N)C(=O)OC(C)(C)C` is lower in TGI: over 100 µM for the first, 8.15 µM for the second.

Molecule `Cn1c(C2CCCc3c2c2ccccc2n3C)cc2ccccc21` (stereo not drawn) has a TGI of over 318 µM.

What follows are molecules tested on 786-0 renal (assay: growth of human tumour cells (NCI), 48 h).

Compared with `COc1cc(/C=C2\CCC(C)(CN(C)C)C2=O)cc(OC)c1OC` (stereo not drawn), `COc1cc(C(=O)Nc2cccc3ccccc23)c(Br)c(OC)c1OC` is lower in TGI: over 100 µM for the first, 3.1 µM for the second.

Compared with `CC(C)(C)OC(=O)C1=C(O)C(C(=O)OC(C)(C)C)C23CCCCC12C(C(=O)OC(C)(C)C)C(O)=C3C(=O)OC(C)(C)C` (stereo not drawn), `CC[C@H]1CC(=O)c2c(cc3c(c2O)C(=O)c2ccccc2C3=O)[C@@]1(C#N)C(=O)OC(C)(C)C` is lower in TGI: over 100 µM for the first, 46.4 µM for the second.

Work on `Cn1c(C2CCCc3c2c2ccccc2n3C)cc2ccccc21` (stereo not drawn) yielded a TGI of over 318 µM.

These molecules were tested on NCI-H460 lung (assay: growth of human tumour cells (NCI), 48 h).

`COc1cc(/C=C2\CCC(C)(CN(C)C)C2=O)cc(OC)c1OC` (stereo not drawn) and `COc1cc(C(=O)Nc2cccc3ccccc23)c(Br)c(OC)c1OC` cannot be ordered by TGI: over 100 µM for the first, over 100 µM for the second.

Going from `CC(C)(C)OC(=O)C1=C(O)C(C(=O)OC(C)(C)C)C23CCCCC12C(C(=O)OC(C)(C)C)C(O)=C3C(=O)OC(C)(C)C` (stereo not drawn) to `CC[C@H]1CC(=O)c2c(cc3c(c2O)C(=O)c2ccccc2C3=O)[C@@]1(C#N)C(=O)OC(C)(C)C`, the TGI falls from over 100 µM to 7.54 µM.

In the case of `Cn1c(C2CCCc3c2c2ccccc2n3C)cc2ccccc21` (stereo not drawn), the TGI is reported as over 318 µM.

The molecules below were run on DMS 273 small cell lung (assay: growth of human tumour cells (NCI), 48 h).

Compared with `COc1cc(/C=C2\CCC(C)(CN(C)C)C2=O)cc(OC)c1OC` (stereo not drawn), `CC[C@H]1CC(=O)c2c(cc3c(c2O)C(=O)c2ccccc2C3=O)[C@@]1(C#N)C(=O)OC(C)(C)C` is lower in TGI: over 100 µM for the first, 5.97 µM for the second.

`CC(C)(C)OC(=O)C1=C(O)C(C(=O)OC(C)(C)C)C23CCCCC12C(C(=O)OC(C)(C)C)C(O)=C3C(=O)OC(C)(C)C` (stereo not drawn) and `Cn1c(C2CCCc3c2c2ccccc2n3C)cc2ccccc21` (stereo not drawn) cannot be ordered by TGI: over 100 µM for the first, over 318 µM for the second.

These molecules were tested on ACHN renal (assay: growth of human tumour cells (NCI), 48 h).

`COc1cc(/C=C2\CCC(C)(CN(C)C)C2=O)cc(OC)c1OC` (stereo not drawn) and `COc1cc(C(=O)Nc2cccc3ccccc23)c(Br)c(OC)c1OC` cannot be ordered by TGI: over 100 µM for the first, over 100 µM for the second.

Going from `CC(C)(C)OC(=O)C1=C(O)C(C(=O)OC(C)(C)C)C23CCCCC12C(C(=O)OC(C)(C)C)C(O)=C3C(=O)OC(C)(C)C` (stereo not drawn) to `CC[C@H]1CC(=O)c2c(cc3c(c2O)C(=O)c2ccccc2C3=O)[C@@]1(C#N)C(=O)OC(C)(C)C`, the TGI falls from over 100 µM to 31.7 µM.

For `Cn1c(C2CCCc3c2c2ccccc2n3C)cc2ccccc21` (stereo not drawn), the TGI was over 318 µM.

Each molecule was assayed on M19-MEL melanoma (assay: growth of human tumour cells (NCI), 48 h).

`COc1cc(/C=C2\CCC(C)(CN(C)C)C2=O)cc(OC)c1OC` (stereo not drawn) and `COc1cc(C(=O)Nc2cccc3ccccc23)c(Br)c(OC)c1OC` cannot be ordered by TGI: over 100 µM for the first, over 100 µM for the second.

Going from `CC(C)(C)OC(=O)C1=C(O)C(C(=O)OC(C)(C)C)C23CCCCC12C(C(=O)OC(C)(C)C)C(O)=C3C(=O)OC(C)(C)C` (stereo not drawn) to `CC[C@H]1CC(=O)c2c(cc3c(c2O)C(=O)c2ccccc2C3=O)[C@@]1(C#N)C(=O)OC(C)(C)C`, the TGI falls from over 100 µM to 15.8 µM.

`Cn1c(C2CCCc3c2c2ccccc2n3C)cc2ccccc21` (stereo not drawn) was tested, and the TGI was over 318 µM.

Each molecule was assayed on DMS 114 small cell lung (assay: growth of human tumour cells (NCI), 48 h).

`COc1cc(/C=C2\CCC(C)(CN(C)C)C2=O)cc(OC)c1OC` (stereo not drawn) and `COc1cc(C(=O)Nc2cccc3ccccc23)c(Br)c(OC)c1OC` cannot be ordered by TGI: over 100 µM for the first, over 100 µM for the second.

Going from `CC(C)(C)OC(=O)C1=C(O)C(C(=O)OC(C)(C)C)C23CCCCC12C(C(=O)OC(C)(C)C)C(O)=C3C(=O)OC(C)(C)C` (stereo not drawn) to `CC[C@H]1CC(=O)c2c(cc3c(c2O)C(=O)c2ccccc2C3=O)[C@@]1(C#N)C(=O)OC(C)(C)C`, the TGI falls from over 100 µM to 7.97 µM.

With `Cn1c(C2CCCc3c2c2ccccc2n3C)cc2ccccc21` (stereo not drawn) the TGI was over 318 µM.

What follows are molecules tested on SK-MEL-5 melanoma (assay: growth of human tumour cells (NCI), 48 h).

`COc1cc(/C=C2\CCC(C)(CN(C)C)C2=O)cc(OC)c1OC` (stereo not drawn) was tested, and the TGI was over 100 µM.
